Where two headings read alike, the source gives them in different places.
Legend:
Assay in all cases: biochemical
PIP4K2A = biological target: T1, PIP4K2A (Homo sapiens, UniProt P48426); set-up: SelectScreen Adapta purified lipid kinase panel, 1 uM compound, 10 uM ATP, per cent inhibition; conditions: ATP=10; Technology=Adapta; 10 uM ATP
T1 sequence (P48426 1-406): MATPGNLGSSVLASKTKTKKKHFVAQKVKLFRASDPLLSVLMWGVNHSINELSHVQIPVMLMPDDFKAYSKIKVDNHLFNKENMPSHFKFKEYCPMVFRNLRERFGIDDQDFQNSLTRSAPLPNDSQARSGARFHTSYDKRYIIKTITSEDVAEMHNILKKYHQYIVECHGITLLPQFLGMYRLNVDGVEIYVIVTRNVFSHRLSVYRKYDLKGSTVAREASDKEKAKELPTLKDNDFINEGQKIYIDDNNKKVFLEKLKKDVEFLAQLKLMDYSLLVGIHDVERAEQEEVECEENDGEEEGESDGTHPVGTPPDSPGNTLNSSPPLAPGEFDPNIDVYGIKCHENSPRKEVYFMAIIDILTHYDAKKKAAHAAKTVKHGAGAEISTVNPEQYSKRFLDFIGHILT
Description: (§1) As PI3KC2α is related to other PI3Ks and to PI3K-like protein kinases such as mTOR, the selectivity of PITCOINs was determined in a panel of biochemical assays. […] Finally, the high specificity of PITCOINs for PI3KC2α was verified by Kinobead profiling experiments. In this approach, the ability of PITCOINs to compete the affinity capture of cellular kinases on immobilized nonselective kinase inhibitors (Kinobeads) is analyzed by mass spectrometry (MS)[31]. […] Four nonkinase weak off-targets were globally found for the three inhibitors with only FECH[32] common to the three PITCOINs (Supplementary Dataset).  Extended Data Fig. 2 Lipid kinase inhibitor profile of PITCOIN1-3. (a–c) Selectivity profiling of PITCOIN1-3 (1 µM) with purified lipid kinases in the presence of 10 µM ATP. […] Data are presented as mean ± SD from two independent experiments. (d, e) IC50 measurements of PITCOIN1-3 against purified recombinant class I PI3K p110α/p85α (d) or purified class III PI3K VPS34 complex II (e). 10 µM ATP and 20 µM PIP3 (for p110α/p85α) or 200 µM PI (for VPS34 complex II) were used as substrates. […] Data are presented as mean ± SD from two independent experiments. Source data

[1] = biological target: PIK3CB/PIK3R1 (p110 beta/p85 alpha) (Homo sapiens, UniProt P42338); set-up: SelectScreen Adapta purified lipid kinase panel, 1 uM compound, 10 uM ATP, per cent inhibition; conditions: ATP=10; Technology=Adapta; 10 uM ATP
PIK3CB/PIK3R1 (p110 beta/p85 alpha), sequence (P42338 whole entry): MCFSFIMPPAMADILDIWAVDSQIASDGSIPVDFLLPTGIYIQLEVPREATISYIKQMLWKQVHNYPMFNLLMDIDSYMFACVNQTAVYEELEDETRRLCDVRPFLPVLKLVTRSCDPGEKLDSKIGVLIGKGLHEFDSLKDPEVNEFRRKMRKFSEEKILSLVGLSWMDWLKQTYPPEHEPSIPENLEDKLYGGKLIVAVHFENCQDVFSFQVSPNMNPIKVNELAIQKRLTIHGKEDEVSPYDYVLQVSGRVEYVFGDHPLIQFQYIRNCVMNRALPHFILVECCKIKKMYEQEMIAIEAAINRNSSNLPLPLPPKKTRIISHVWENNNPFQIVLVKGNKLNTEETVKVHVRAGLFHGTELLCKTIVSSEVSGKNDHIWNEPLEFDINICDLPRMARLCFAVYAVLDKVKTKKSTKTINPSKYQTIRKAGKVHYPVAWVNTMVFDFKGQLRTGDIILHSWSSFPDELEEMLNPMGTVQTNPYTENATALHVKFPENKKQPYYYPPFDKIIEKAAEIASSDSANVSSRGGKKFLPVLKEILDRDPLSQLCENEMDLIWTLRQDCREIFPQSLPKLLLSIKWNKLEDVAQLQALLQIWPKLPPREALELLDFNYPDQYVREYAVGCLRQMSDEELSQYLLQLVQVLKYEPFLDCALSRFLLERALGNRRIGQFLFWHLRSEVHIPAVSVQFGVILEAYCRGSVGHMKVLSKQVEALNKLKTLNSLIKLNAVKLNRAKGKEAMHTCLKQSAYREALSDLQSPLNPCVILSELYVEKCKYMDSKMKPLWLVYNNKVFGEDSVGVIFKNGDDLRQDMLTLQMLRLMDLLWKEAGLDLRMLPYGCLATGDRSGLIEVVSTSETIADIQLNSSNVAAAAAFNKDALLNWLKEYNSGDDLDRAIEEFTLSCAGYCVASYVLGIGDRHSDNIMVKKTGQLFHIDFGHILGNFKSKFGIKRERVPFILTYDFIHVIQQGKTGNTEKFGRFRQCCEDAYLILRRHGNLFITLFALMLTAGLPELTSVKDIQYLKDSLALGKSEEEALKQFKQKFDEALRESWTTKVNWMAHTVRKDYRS
PIK3CB/PIK3R1 (p110 beta/p85 alpha), sequence (P27986 whole entry partner): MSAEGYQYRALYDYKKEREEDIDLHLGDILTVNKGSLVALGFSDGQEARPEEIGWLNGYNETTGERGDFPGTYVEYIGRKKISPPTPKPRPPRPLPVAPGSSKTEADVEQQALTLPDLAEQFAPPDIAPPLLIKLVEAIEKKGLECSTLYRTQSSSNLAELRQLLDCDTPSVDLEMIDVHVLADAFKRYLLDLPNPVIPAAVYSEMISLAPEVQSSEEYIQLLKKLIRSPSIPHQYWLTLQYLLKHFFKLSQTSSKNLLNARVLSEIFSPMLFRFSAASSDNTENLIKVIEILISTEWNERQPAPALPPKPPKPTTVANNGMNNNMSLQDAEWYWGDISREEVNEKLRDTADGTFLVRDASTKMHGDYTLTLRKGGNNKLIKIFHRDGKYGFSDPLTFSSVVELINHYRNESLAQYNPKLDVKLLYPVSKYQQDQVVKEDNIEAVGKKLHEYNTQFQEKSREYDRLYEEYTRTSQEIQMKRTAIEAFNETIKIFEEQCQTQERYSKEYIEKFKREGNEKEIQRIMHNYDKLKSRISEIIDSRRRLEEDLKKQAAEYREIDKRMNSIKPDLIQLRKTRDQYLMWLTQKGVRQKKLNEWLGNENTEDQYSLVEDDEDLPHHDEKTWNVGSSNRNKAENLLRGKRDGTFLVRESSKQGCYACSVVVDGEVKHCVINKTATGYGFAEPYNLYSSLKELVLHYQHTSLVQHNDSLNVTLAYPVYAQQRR
Description: as §1

[2] = biological target: PIK3CA/PIK3R3 (p110 alpha/p55 gamma) (Homo sapiens, UniProt P42336); set-up: SelectScreen Adapta purified lipid kinase panel, 1 uM compound, 10 uM ATP, per cent inhibition; conditions: ATP=10; Technology=Adapta; 10 uM ATP
Description: as §1

PI4K2B (PI4K2 beta) = PI4K2B (PI4K2 beta) (Homo sapiens, UniProt Q8TCG2); set-up: SelectScreen Adapta purified lipid kinase panel, 1 uM compound, 10 uM ATP, per cent inhibition; conditions: ATP=10; Technology=Adapta; 10 uM ATP
PI4K2B (PI4K2 beta), sequence (Q8TCG2 whole entry): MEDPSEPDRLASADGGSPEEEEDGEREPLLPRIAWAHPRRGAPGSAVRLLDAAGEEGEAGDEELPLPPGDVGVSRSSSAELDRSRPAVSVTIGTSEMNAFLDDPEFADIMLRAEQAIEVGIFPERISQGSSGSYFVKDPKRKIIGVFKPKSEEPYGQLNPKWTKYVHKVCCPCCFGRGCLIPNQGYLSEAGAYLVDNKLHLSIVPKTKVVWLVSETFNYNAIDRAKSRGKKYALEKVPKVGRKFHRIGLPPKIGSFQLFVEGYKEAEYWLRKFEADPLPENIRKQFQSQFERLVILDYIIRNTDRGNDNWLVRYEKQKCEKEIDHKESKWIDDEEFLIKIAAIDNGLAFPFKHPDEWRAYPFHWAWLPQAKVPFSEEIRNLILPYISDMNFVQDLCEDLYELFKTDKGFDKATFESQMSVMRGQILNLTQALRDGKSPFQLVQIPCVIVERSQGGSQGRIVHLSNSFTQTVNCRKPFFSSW
Description: as §1

SPHK1 = SPHK1 (Homo sapiens, UniProt Q9NYA1); set-up: SelectScreen Adapta purified lipid kinase panel, 1 uM compound, 10 uM ATP, per cent inhibition; conditions: ATP=10; Technology=Adapta; 10 uM ATP
SPHK1, sequence (Q9NYA1 whole entry): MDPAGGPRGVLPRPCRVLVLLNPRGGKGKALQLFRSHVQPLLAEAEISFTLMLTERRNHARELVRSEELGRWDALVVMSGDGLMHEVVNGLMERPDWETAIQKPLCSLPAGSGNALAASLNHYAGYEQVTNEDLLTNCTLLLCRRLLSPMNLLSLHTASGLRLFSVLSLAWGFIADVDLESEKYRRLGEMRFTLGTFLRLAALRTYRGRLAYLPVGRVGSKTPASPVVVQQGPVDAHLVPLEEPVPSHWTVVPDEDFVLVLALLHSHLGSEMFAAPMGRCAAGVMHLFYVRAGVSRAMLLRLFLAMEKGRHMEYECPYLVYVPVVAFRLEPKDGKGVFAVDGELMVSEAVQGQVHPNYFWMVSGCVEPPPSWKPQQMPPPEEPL
Description: as §1

PIK3C2B (PI3K-C2 beta) = PIK3C2B (PI3K-C2 beta) (Homo sapiens, UniProt O00750); set-up: SelectScreen Adapta purified lipid kinase panel, 1 uM compound, 10 uM ATP, per cent inhibition; conditions: ATP=10; Technology=Adapta; 10 uM ATP
Description: as §1

PIK3CG (p110 gamma) = PIK3CG (p110 gamma) (Homo sapiens, UniProt P48736); set-up: SelectScreen Adapta purified lipid kinase panel, 1 uM compound, 10 uM ATP, per cent inhibition; conditions: ATP=10; Technology=Adapta; 10 uM ATP
Description: as §1

PI4KA (PI4K alpha) = PI4KA (PI4K alpha) (Homo sapiens, UniProt P42356); set-up: SelectScreen Adapta purified lipid kinase panel, 1 uM compound, 10 uM ATP, per cent inhibition; conditions: ATP=10; Technology=Adapta; 10 uM ATP
PI4KA (PI4K alpha), sequence (P42356 whole entry): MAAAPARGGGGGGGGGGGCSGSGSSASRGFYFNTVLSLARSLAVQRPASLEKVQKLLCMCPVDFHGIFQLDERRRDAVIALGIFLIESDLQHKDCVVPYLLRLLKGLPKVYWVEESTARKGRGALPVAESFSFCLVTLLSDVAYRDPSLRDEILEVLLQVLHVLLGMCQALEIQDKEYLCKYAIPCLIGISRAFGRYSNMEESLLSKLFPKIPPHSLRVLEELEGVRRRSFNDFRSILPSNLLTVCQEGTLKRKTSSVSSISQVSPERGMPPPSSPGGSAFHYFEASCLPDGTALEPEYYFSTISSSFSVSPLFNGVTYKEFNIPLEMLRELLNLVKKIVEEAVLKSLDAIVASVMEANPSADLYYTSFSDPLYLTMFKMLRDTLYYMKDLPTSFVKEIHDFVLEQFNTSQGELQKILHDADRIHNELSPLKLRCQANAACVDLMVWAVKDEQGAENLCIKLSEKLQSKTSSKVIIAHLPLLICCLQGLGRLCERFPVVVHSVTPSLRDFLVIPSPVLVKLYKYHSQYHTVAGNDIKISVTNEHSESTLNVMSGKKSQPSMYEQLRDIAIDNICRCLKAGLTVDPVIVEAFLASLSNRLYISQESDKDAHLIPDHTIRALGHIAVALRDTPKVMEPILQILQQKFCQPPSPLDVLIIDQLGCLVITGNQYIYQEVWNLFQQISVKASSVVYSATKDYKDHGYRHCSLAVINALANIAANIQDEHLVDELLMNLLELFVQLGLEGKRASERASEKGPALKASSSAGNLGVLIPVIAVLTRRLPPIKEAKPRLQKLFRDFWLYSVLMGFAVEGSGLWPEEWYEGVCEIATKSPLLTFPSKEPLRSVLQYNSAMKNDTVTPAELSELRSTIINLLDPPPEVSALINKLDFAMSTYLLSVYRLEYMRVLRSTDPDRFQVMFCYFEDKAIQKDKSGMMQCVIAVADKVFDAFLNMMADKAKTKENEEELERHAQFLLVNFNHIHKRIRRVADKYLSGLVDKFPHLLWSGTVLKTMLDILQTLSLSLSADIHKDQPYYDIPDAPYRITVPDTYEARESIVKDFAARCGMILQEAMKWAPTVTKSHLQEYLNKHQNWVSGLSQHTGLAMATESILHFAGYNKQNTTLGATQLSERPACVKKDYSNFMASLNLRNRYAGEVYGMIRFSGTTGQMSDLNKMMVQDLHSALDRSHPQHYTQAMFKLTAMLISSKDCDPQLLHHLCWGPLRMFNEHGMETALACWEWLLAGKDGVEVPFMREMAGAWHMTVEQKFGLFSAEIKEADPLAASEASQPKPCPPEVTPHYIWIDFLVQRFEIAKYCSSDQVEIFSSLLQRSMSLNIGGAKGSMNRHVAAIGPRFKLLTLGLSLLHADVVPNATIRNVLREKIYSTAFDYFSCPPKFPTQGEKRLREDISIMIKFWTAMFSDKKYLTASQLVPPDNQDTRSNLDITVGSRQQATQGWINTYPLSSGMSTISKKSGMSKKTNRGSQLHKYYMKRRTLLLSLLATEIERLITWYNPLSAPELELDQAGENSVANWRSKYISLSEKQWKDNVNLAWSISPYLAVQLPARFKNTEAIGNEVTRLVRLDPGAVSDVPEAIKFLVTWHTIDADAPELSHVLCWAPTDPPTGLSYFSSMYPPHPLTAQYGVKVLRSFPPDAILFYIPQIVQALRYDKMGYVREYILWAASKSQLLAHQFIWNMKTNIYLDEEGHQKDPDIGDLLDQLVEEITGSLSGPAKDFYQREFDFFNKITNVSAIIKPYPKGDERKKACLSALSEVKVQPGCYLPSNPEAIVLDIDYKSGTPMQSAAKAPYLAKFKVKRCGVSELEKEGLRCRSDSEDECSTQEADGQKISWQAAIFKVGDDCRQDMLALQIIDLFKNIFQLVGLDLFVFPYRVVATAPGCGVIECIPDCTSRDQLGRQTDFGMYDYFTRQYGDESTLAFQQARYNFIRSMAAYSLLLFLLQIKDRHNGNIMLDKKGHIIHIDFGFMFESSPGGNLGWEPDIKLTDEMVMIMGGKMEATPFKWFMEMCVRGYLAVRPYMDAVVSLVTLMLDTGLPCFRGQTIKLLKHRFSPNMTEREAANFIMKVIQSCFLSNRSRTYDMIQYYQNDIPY
Description: as §1

VPS34 complex II = biological target: T2, VPS34 complex II (Homo sapiens, UniProt Q8NEB9); set-up: Lipid kinase activity assay on purified class I PI3K or VPS34 complex II, 10 uM ATP
T2 construct: gene PIK3C3
Description: Extended Data Fig. 2 Lipid kinase inhibitor profile of PITCOIN1-3. (a–c) Selectivity profiling of PITCOIN1-3 (1 µM) with purified lipid kinases in the presence of 10 µM ATP. […] Data are presented as mean ± SD from two independent experiments. (d, e) IC50 measurements of PITCOIN1-3 against purified recombinant class I PI3K p110α/p85α (d) or purified class III PI3K VPS34 complex II (e). 10 µM ATP and 20 µM PIP3 (for p110α/p85α) or 200 µM PI (for VPS34 complex II) were used as substrates. […] Data are presented as mean ± SD from two independent experiments. Source data

inhibition at 1 µM (PIP4K2A) | inhibition at 1 µM [1] | inhibition at 1 µM [2] | inhibition at 1 µM (PI4K2B (PI4K2 beta)) | inhibition at 1 µM (SPHK1) | inhibition at 1 µM (PIK3C2B (PI3K-C2 beta)) | inhibition at 1 µM (PIK3CG (p110 gamma)) | inhibition at 1 µM (PI4KA (PI4K alpha)) | IC50 (VPS34 complex II; read-out: PITCOIN1 (IC50)) | IC50 (VPS34 complex II; read-out: PITCOIN3 (IC50)) | IC50 (VPS34 complex II; read-out: PITCOIN2 (IC50)) | Compound
13% | 10% | -6% | 4% | -1% | 12% | 20% | 1% | > 10 µM | – | – | O=C(CSc1nc2nccnc2c(=O)n1CCc1ccccc1)Nc1nccs1 [compound 1, PITCOIN1]
-15% | 12% | 5% | 8% | -1% | 9% | 9% | 5% | – | > 10 µM | – | CS(=O)(=O)Nc1cccc(-c2csc(NC(=O)CSc3nc4nccnc4c(=O)n3CCc3ccccc3)n2)c1 [compound 3, PITCOIN3]
2% | 13% | -10% | -5% | -6% | 40% | 16% | -9% | – | – | > 10 µM | O=C(CSc1nc2nccnc2c(=O)n1CCc1ccccc1)Nc1nc(-c2cccc(O)c2)cs1 [compound 2, PITCOIN2]

Source: paper PMC7613998, “Development of selective inhibitors of phosphatidylinositol 3-kinase C2α” (Nature Chemical Biology, 2022)
